Measured values taken from PubChem BioAssay AID1508612.
One block for each compound: values may come before it.

Assay: passive permeability, PAMPA, ADME assay (AID 1508612)
Conditions: pH 7.4, 30.0 min, 50.0 µM

Structure (SMILES): CNc1nc2c(s1)C(c1ccccc1F)CC(=O)N2 (stereo not drawn)
- Papp: 52 ×10⁻⁶ cm/s

Structure (SMILES): Nc1cccc(CNc2ccc(S(=O)(=O)Nc3nccs3)cc2)c1O
- Papp: < 1 ×10⁻⁶ cm/s

Structure (SMILES): Cc1ccc(S(=O)(=O)Nc2cnccc2C(=O)Nc2ccc(-c3nc4ccccc4[nH]3)cc2)cc1
- Papp: 2.2 ×10⁻⁶ cm/s

Structure (SMILES): COc1ccnc(NC(=S)N2CCN(c3ncc(C(F)(F)F)cc3Cl)CC2)c1
- Papp: > 1000 ×10⁻⁶ cm/s

Structure (SMILES): CC(C)(C)C(=O)N1CCN(c2nccc(Nc3ccccc3Cl)n2)CC1
- Papp: > 1000 ×10⁻⁶ cm/s

Structure (SMILES): Cc1cccc(CN2CCN(c3ccccn3)CC2)c1
- Papp: > 1000 ×10⁻⁶ cm/s

Structure (SMILES): Cc1noc([C@@H]2CN(C(=O)c3nn(C)c4ccccc34)C[C@H]2CO)n1
- Papp: 84.2 ×10⁻⁶ cm/s

Structure (SMILES): CC(C)Oc1ccc(-c2csc(N3CCC(C(N)=O)CC3)n2)cc1
- Papp: > 1000 ×10⁻⁶ cm/s

Structure (SMILES): O=C(CCCCCCC(=O)Nc1ccccc1)NO
- Papp: 63.4 ×10⁻⁶ cm/s

Structure (SMILES): c1ccc2c(N3CCOCC3)nc(-c3ccncc3)nc2c1
- Papp: > 1000 ×10⁻⁶ cm/s

Structure (SMILES): CN(C(=O)CSc1nc2ccc(NC(=O)c3ccc(F)cc3)cc2s1)c1ccccc1
- Papp: 741 ×10⁻⁶ cm/s

Structure (SMILES): Cc1cnc(-c2ccccc2C(F)F)nc1NCC1CN(c2cnccn2)C1
- Papp: > 1000 ×10⁻⁶ cm/s

Structure (SMILES): COC(=O)c1ccccc1C(=O)Nc1nc(-c2ccccc2)cs1
- Papp: 896 ×10⁻⁶ cm/s

Structure (SMILES): Fc1cccc(CN2CCNc3cc(Nc4ccccc4)ncc3C2)c1
- Papp: < 1 ×10⁻⁶ cm/s

Structure (SMILES): CC(=O)c1c(C)[nH]c(C(=O)Nc2cccc([S+](=O)([O-])Nc3ccccn3)c2)c1C
- Papp: 11.6 ×10⁻⁶ cm/s

Structure (SMILES): COC(=O)[C@]12CCC(C)(C)C[C@@H]1[C@@H]1C(=O)C=C3[C@@]4(C)C=C(C#N)C(=O)C(C)(C)[C@@H]4CC[C@@]3(C)[C@]1(C)CC2
- Papp: 16.2 ×10⁻⁶ cm/s

Structure (SMILES): O=C(Nc1nc(-c2ccccc2)cs1)c1ccncc1NS(=O)(=O)c1cccc(Cl)c1
- Papp: 754 ×10⁻⁶ cm/s

Structure (SMILES): O=C(Nc1nc(-c2ccc(F)cc2)cs1)c1ccncc1NS(=O)(=O)c1ccccc1Cl
- Papp: > 1000 ×10⁻⁶ cm/s

Structure (SMILES): Cc1cc(-c2nnc3n2CCCCC3)c(C)n1-c1ccc([N+](=O)[O-])cc1
- Papp: 20.8 ×10⁻⁶ cm/s

Structure (SMILES): Cc1ccc(S(=O)(=O)Nc2ccc(C)cc2C(=O)Nc2nc(-c3ccccc3)cs2)cc1
- Papp: < 1 ×10⁻⁶ cm/s

Structure (SMILES): O=c1[nH]cnc2nc[nH]c12
- Papp: < 1 ×10⁻⁶ cm/s

Structure (SMILES): NC(=O)c1ccc(-c2nc3c([nH]2)CN(C(=O)CN2CCOCC2)CC3)cc1
- Papp: 2.6 ×10⁻⁶ cm/s

Structure (SMILES): CCN1CCN(c2ccc(Nc3ccc(-c4ccc(C(N)=O)cc4)n4ncnc34)cc2)CC1
- Papp: 747 ×10⁻⁶ cm/s

Structure (SMILES): NC(=O)C1CCN(c2nc(-c3ccc(N)cc3)cs2)CC1
- Papp: 87.1 ×10⁻⁶ cm/s

Structure (SMILES): Cc1cc(C)c(C(=O)Nc2cccc([S+](=O)([O-])N3CCCCCC3)c2)[nH]1
- Papp: 990 ×10⁻⁶ cm/s

Structure (SMILES): O=C(O)CCNc1cc(N2CCc3ccccc3CC2)nc(-c2cccnc2)n1
- Papp: 56.4 ×10⁻⁶ cm/s

Structure (SMILES): Cc1ccc(S(=O)(=O)Nc2cnccc2C(=O)Nc2ccccc2)cc1
- Papp: 123 ×10⁻⁶ cm/s

Second part, the compound after the results:

- Papp: 641 ×10⁻⁶ cm/s
Structure (SMILES): NC(=O)C1CCN(c2nc(-c3cccc4ccccc34)cs2)CC1

- Papp: 531 ×10⁻⁶ cm/s
Structure (SMILES): O=C1CCCC2=C1C(c1[nH]ncc1Cl)N=C(Nc1nc3c(Br)cccc3o1)N2 (stereo not drawn)

- Papp: 289 ×10⁻⁶ cm/s
Structure (SMILES): Cc1nc2sccn2c(=O)c1S(=O)(=O)Nc1ccc(N2CCN(C)CC2)cc1

- Papp: 28.8 ×10⁻⁶ cm/s
Structure (SMILES): COc1cccc(CNc2ccc(S(=O)(=O)Nc3nccs3)cc2)c1N

- Papp: > 1000 ×10⁻⁶ cm/s
Structure (SMILES): COc1ccc(OC)c(Nc2c3c(nc4ccccc24)CCC3)c1

- Papp: 278 ×10⁻⁶ cm/s
Structure (SMILES): COc1ccccc1-c1nnc2sc(-c3ccc(N(C)C)cc3)nn12

- Papp: 68.3 ×10⁻⁶ cm/s
Structure (SMILES): CCOC(=O)Nc1ccc(NCc2ccc(F)cc2)nc1N

- Papp: 10.1 ×10⁻⁶ cm/s
Structure (SMILES): CC(C)(C)c1ccc(-c2nc(SCCCOc3ccccc3)n3[nH]c(=O)cc3n2)cc1

- Papp: 763 ×10⁻⁶ cm/s
Structure (SMILES): COc1ccc(-c2ccc3ncc(Nc4ccncc4)n3n2)cc1OC

- Papp: 313 ×10⁻⁶ cm/s
Structure (SMILES): COc1cccc(CNc2ccc(S(=O)(=O)Nc3nccs3)cc2)c1OC

- Papp: > 1000 ×10⁻⁶ cm/s
Structure (SMILES): COc1ccc(NC(=O)CCCc2nnc3n(CCC(C)C)c(=O)c4sccc4n23)cc1Cl

- Papp: > 1000 ×10⁻⁶ cm/s
Structure (SMILES): Cc1ccc(-n2ncc3c(NCCCn4ccnc4)ncnc32)cc1Cl

- Papp: 235 ×10⁻⁶ cm/s
Structure (SMILES): COc1ccc(C2c3c(oc4ccc(Cl)cc4c3=O)C(=O)N2CCCN(C)C)cc1OC (stereo not drawn)

- Papp: 353 ×10⁻⁶ cm/s
Structure (SMILES): CCOC(=O)c1ccc(-n2c(C)cc(-c3nnc4n3CCCCC4)c2C)cc1

- Papp: > 1000 ×10⁻⁶ cm/s
Structure (SMILES): Cc1cc(-c2nnc3n2CCCCC3)c(C)n1-c1cccc2ccccc12

- Papp: 868 ×10⁻⁶ cm/s
Structure (SMILES): COc1cccc(CN(C)c2ccc([S+](=O)([O-])Nc3nccs3)cc2)c1O

- Papp: > 1000 ×10⁻⁶ cm/s
Structure (SMILES): CS(=O)(=O)c1ccc(-c2nnc(/C=C/c3nnc(-c4ccc(C#N)cc4)o3)n2-c2ccccc2Cl)nc1

- Papp: 2.11 ×10⁻⁶ cm/s
Structure (SMILES): O=S(=O)(Nc1nccs1)c1ccc(NCc2cccc(F)c2O)cc1

- Papp: 706 ×10⁻⁶ cm/s
Structure (SMILES): COc1ccc2oc(NC3=NC(c4[nH]ncc4Cl)C4=C(CCCC4=O)N3)nc2c1 (stereo not drawn)

- Papp: 321 ×10⁻⁶ cm/s
Structure (SMILES): COc1cccc(C(=O)Nc2nc(-c3nnn(-c4cccc(Cl)c4C)c3C)ns2)c1

- Papp: 908 ×10⁻⁶ cm/s
Structure (SMILES): Cc1c(-c2cccc(NC(=O)c3ccc(F)c(F)c3)c2)nc2ncccn12

- Papp: 2.21 ×10⁻⁶ cm/s
Structure (SMILES): O=[S+]([O-])(Nc1ccc(C2CCNCC2)cc1)c1ccc(NCc2ccc(Cl)cc2O)cc1

- Papp: 26 ×10⁻⁶ cm/s
Structure (SMILES): COC(=O)c1c(NC(=O)Cc2coc3cc(C)ccc23)sc2c1CCC2

- Papp: > 1000 ×10⁻⁶ cm/s
Structure (SMILES): CC(C)N(CCC(=O)c1ccc2ccccc2c1)Cc1ccccc1

- Papp: > 1000 ×10⁻⁶ cm/s
Structure (SMILES): Cc1c(Cl)cccc1-n1ncc(C(=O)Nc2ccc(Br)cc2F)c1C1CCNCC1

- Papp: > 1000 ×10⁻⁶ cm/s
Structure (SMILES): CC(C)c1ccccc1-c1ncc(F)c(NCc2ccc(-c3ccn[nH]3)cc2)n1
